Non-standard residues stand in square brackets, D forms with d. No end group written: not given here.
Experiments:
[1] = tested on: isolated perfused rat hearts; assay: Cardiac function of isolated perfused rat hearts (modified Langendorff) subjected to global I(30 min)/R(45 min); conditions: for blocking of the cardio-protective effects of tri-peptide: opioid antagonist 5 μM given with tri-peptide 50 μM
[2] = tested on: isolated perfused rat hearts; assay: Infarct size by TTC staining of isolated perfused rat hearts after I(30 min)/R(45 min)
[3] = Ventilator induced diaphragmatic dysfunction
[4] = compared to untreated control I/R hearts, tri-peptide 50 μM
[5] = final value, 45 min reperfusion
[6] = initial (baseline) value, mean ± S.E.M.

Compound	blocking of the cardio-protective effects of tri-peptide [1]	post-reperfused cardiac function [1, 4]	Final +dP/dtmax [1, 5] [mmHg/s]	Final Coronary How [1, 5] [mL/min]	Final Heart Rate [1, 5] [BPM]	Final LVEDP [1, 5] [mmHg]	Final LVESP [1, 5] [mmHg]	Final −dP/dtmin [1, 5] [mmHg/s]	Final LVDP ([1]; final value, 45 min reperfusion, LVDP=LVESP−LVEDP) [mmHg]	Initial +dP/dtmax ([1]; initial (baseline) value) [mmHg/s]	Initial Coronary Flow ([1]; initial (baseline) value) [mL/min]	Initial Heart Rate ([1]; initial (baseline) value) [BPM]	Initial LVDP ([1]; initial (baseline) value, LVDP=LVESP−LVEDP) [mmHg]	Initial LVEDP [1, 6] [mmHg]	Initial LVESP [1, 6] [mmHg]	infarct size ([2]; TTC staining after I(30 min)/R(45 min)) [%]	infarct size [2, 4]	ventilator induced diaphragmatic dysfunction [3]
Oc1ccc2c3c1O[C@H]1c4[nH]c5c(c4C[C@@]4(O)[C@@H](C2)N(CC2CC2)CC[C@]314)C[C@@]1(O)[C@H]2Cc3ccc(O)c4c3[C@@]1(CCN2CC1CC1)[C@H]5O4 [BNI, nor-Binaltorphimine, reference compound]	blocked	–	–	–	–	–	–	–	–	–	–	–	–	–	–	–	–	–
Phe-[dR]-Phe-NH2 [tri-peptide]	–	significantly restored	1126.8 ± 177.2	9.6 ± 1.5	276.3 ± 12.6	50.1 ± 7.4	105.6 ± 6.1	965.5 ± 112.1	55.5 ± 6.0	2376.7 ± 75.1	17.7 ± 0.9	287.8 ± 8.1	94.2 ± 2.7	6.7 ± 0.8	100.9 ± 3.1	26 ± 1	reduced infarct size	attenuate
Oc1ccc2c3c1O[C@H]1c4[nH]c5ccccc5c4C[C@@]4(O)[C@@H](C2)N(CC2CC2)CC[C@]314 [NALD, naltrindole, reference compound]	not	–	–	–	–	–	–	–	–	–	–	–	–	–	–	–	–	–
